{"source": "patent US12139531B2", "about": "“Compositions and methods useful in promoting milk production” (The Regents of the University of California, priority 2019, dated 2024)", "key": {"Notch signaling": {"tested_on": "Notch signaling", "test": "In vivo gamma secretase inhibitor treatment; RT-qPCR on FACS-purified alveolar progenitor cells", "design": "species or system mice", "conditions": "GSI-treated vs vehicle-treated", "procedure": "(§1) In further work, Notch signaling was inhibited to attempt to reverse the Robo1−/− phenotype. A γ-inhibitor that has been previously employed successfully in vivo to inhibit Notch in several different organs^26-28, including the mammary gland^29, was selected. Mature virgin animals were treated for […] with 10 mg/kg of the GSI or vehicle control^29 (FIG. 4C). After the treatment, mammary glands were harvested and analyzed by FACS and qPCR. It was observed that Robo1−/− mammary glands contain a higher number of alveolar progenitor cells relative to WT controls (FIG. 4D). […] GSI treatment had no effect on the number of alveolar progenitor cells in WT animals (FIG. 4D).\nRobo1−/− alveolar progenitor cells (AVPs) expressed higher levels of Hey1 and Hes1 with vehicle treatment compared to AVPs from vehicle-treated WT animals (FIG. 4E). […] Vehicle-treated Robo1−/− alveolar progenitor cells (AVPs) expressed lower levels of Elf5 than AVPs from vehicle-treated WT animals (FIG. 4E). This is consistent with the observation of lower levels of ELF5 expression in Robo1−/− compared to Robo1+/+ mammary glands (FIG. 2H), and lower Elf5 in Robo1 knockdown compared to control (Scr) HC11 cells (FIG. 3C). […] In the absence of Robo1, NOTCH4 is activated—an effect that is reversed by either pharmacological inhibition of Notch signaling (FIGS. 4E, 3E, 3F, 3I-K) or knockdown of Notch4 gene expression (FIGS. 3F,G).\n(§2) GSI inhibitor (R04929097; MedchemExpress) was orally administer at 10 mg/kg for 5 days as described^29. Mammary glands were harvest after 5 days of GSI or vehicle treatment and prepared for single cell analysis. Purified populations were collected and processed for RNA. Purified population numbers were analyzed using FlowJo.\n(§3) Total RNA was harvested from cells lysed in TRIzol reagent (Invitrogen) and phase separated according to manufacturer's protocol with an additional overnight RNA precipitation stem in ethanol (Macias et al., 2011). The RNA was further purified with TURBO DNase (Ambion) treatment. Total RNA quality was analyzed by agarose gel electrophoresis and quantified with an ND-1000 spectrophotometer (NanoDrop). cDNA libraries were prepared from 1 μg of total RNA using iScript cDNA synthesis kit (BioRad). Quantitative RT-PCR was performed in triplicates using light Cycler 480 SYBR Green I Master (Roche) and quantified using BioRad CFX'Connect Real-Time System and CFX Manager software (BioRad). Results were normalized to GAPDH."}, "Notch": {"tested_on": "Notch", "test": "In vivo gamma secretase inhibitor treatment; number of FACS-purified alveolar progenitor cells", "design": "species or system mice", "conditions": "10 mg/kg GSI orally, mature virgin", "procedure": "as §1\nMechanically dissociated inguinal and thoracic mammary fat pads were prepared into cell suspension for FACS as described^17. AVPs were isolated using FITC-CD14 (clone Sa14-2; BioLegend) and […] (clone 2B8; BioLegend) as described^14.\nas §2"}, "HC11 cells [1]": {"tested_on": "HC11 cells", "test": "HC11 dome assay (milk dome formation on differentiation in DIP media)", "type": "cell-based, mouse", "conditions": "for dome formation in response to a titration of ECD fragments: HC11 cells, increasing ECD concentration", "procedure": "To investigate ROBO1 function during alveologenesis, Robo1 gene expression was inhibited in HC11 cells (Robo1 KD). HC11 cells are a well-established, prolactin-responsive model of lactation,^19,20. Cells in which Robo1 gene expression was not inhibited are referred to as WT or Robo1+/+ herein. To measure milk production, cells were grown to confluence and then primed by treatment with epidermal growth factor (EGF, 10 ng/ml). The EGF is administered for three days in combination with charcoal-stripped fetal bovine serum, followed by one day of charcoal-stripped fetal bovine serum in the absence of EGF. These primed cells are then differentiated by treatment with dexamethasone (1 μg/ml), insulin (5 μg/ml) and prolactin (Prl, 5 μg/ml) media (DIP media) for between 3 and 5 days (FIG. 2A). Differentiation (Dif) results in the development of milk-filled domes (FIG. 2B). […] If the cells were left undifferentiated (Undif), there was little dome formation in either WT or Robo1−/− cells (FIG. 2B). Next, tissue from Robo1 knockout mice (Robo1−/−) and wild type mice (WT or Robo1+/+) mice was analyzed. Mammary glands were harvested from pregnant day 18 WT and Robo1−/− animals and alveologenesis analyzed by serially sectioning, carmine staining and then quantifying the area occupied by alveoli in sections located at top, middle and bottom portions of the tissue.\nDome number formation in response to a titration of ROBO1 ECD fragments was quantified. […] A bovine ROBO1-Ig5 construct was also tested in this assay and, as with the rat constructs, more domes were formed in response to treatment with higher concentrations of […] (FIG. 7H).\n(§4) HC11 cells were grown in RPMI 1640 media (Gibco) supplemented with 10% fetal bovine serum (BioFluid Technologies), 5 μg/mL insulin (Sigma), and 10 ng/ml epidermal growth factor (EGF; Sigma). To induce differentiation in HC11 cells, confluent plates were given fresh media (RPMI 1640 media supplemented with 5% charcoal-stripped fetal bovine serum (BioFluid Technologies), 5 μg/mL insulin, and 10 ng/ml epidermal growth factor (EGF; Sigma) for 3 days followed by 24 hours of priming in priming medium (RPMI 1640 media supplemented with 5% charcoal-stripped fetal bovine serum (BioFluid Technologies), and 5 μg/mL insulin. After priming, DIP medium (RPMI 1640 media supplemented with 5% charcoal-stripped fetal bovine serum (BioFluid Technologies), 10^−6 M dexamethasone (Sigma), 5 μg/mL insulin, and 5 μg/mL prolactin (National Hormone and Peptide program) was added with fresh media every 24 hours."}, "NOTCH4": {"tested_on": "NOTCH4", "test": "Cell fractionation and Western blot for HES1 and NOTCH4-ICD in HC11 cells", "type": "cell-based, mouse", "conditions": "siR1+GSI, primed/differentiated HC11 cells, nuclear fraction", "procedure": "Notch receptor activation can be regulated through direct interactions with binding partners^24. […] To address this possibility, co-immunoprecipitation experiments were performed using MBA-MD-231 cells lysates, which express detectable levels of all four Notch receptors (NOTCH1-4). Endogenous ROBO1 co-immunoprecipitated with NOTCH4, but not […], NOTCH2 or NOTCH3 (FIG. 3H and data not shown). Next, the expression and subcellular localization of the NOTCH4 intracellular domain (N4-ICD) and HES1 was examined in control (Scr) and Robo1 (siR1) knockdown HC11 cells. Expression of Robo1 was inhibited in HC11 cells that were then primed for differentiation as described above. […] This effect was not observed in control Robo1 knockdown cells engineered to overexpress Robo1 (siR1+o/e) or cells treated with the γ-secretase inhibitor GSI (siR1+GSI) (FIGS. 3I-3K).\nTo examine the effects of ROBO1-ECD fragments on Notch signaling, HC11 cells were treated with ROBO1-ECD fragments and Notch effector expression assessed. […] In addition, HC11 cells were treated with ROBO-Ig5 during differentiation. These cells were then fractionated and a Western blot performed to detect HES1 and NOTCH4-ICD (FIG. 8B).\nProtein lysates were prepared by directly lysing adherent cells in 1× sample buffer supplemented with 5% beta-mercaptoethanol and boiled for 5 minutes. Protein lysate was resolved by SDS-PAGE and transferred to a PVDF for 90 minutes at 400 mA or overnight at 30 mA. Primary antibodies were used at the concentration indicated in Table 1 and incubated overnight at 4° C. HRP conjugated secondary antibodies (Jackson Labs) were used at 1:3000 and incubated for 45 minutes at room temp. All proteins were detected using Clarity ECL (BioRad) using a BioRad Chemi-Doc MP Imager and quantified using ImageLab software as previously described a."}, "HC11 cells [2]": {"tested_on": "HC11 cells", "test": "RT-qPCR of milk genes (WAP, Lalba) in differentiated HC11 cells", "type": "cell-based, mouse", "procedure": "To determine whether the promotion of dome formation also results in higher milk production, HC11 cells were differentiated in the presence or absence of ROBO1-ECD fragments that were added to cells simultaneously with DIP media. Cells were harvested and the expression of WAP and Lalba assessed by RT-qPCR. […] WAP expression levels were not increased in cells treated with DCC-Ig4 (FIG. 7K). Next, Western blot analysis of WAP and PLIN2 was performed on cells treated with ROBO1-Ig5 and ROBO1-Ecto.\nas §4\nas §3, with “Results were normalized to GAPDH.” left out"}, "HEK-293 cells": {"tested_on": "HEK-293 cells", "test": "Dot blot dilution assay of ROBO1-Ig5 secretion into media of transfected HEK-293 cells", "type": "cell-based", "conditions": "heparin 300 ng/ml, media days two, four, six", "from_the_text": "Three recombinant ROBO1 ECD constructs were constructed: one comprising two immunoglobulin (Ig) domains (ROBO1-Ig2), another comprising all five Ig domains (ROBO1-Ig5), and another comprising the entire extracellular domain (ROBO1-Ecto) (FIG. 6A). In other constructs, HA (hemagglutinin), Myc, and human and mouse immunoglobulin Fc were fused to the Robo1 ECDs (FIG. 6A, 5F right). Extracellular domains of Deleted in Colorectal Cancer (DCC), a structurally similar Ig superfamily member to ROBO1, comprising either two Ig (DCC-Ig2) or four Ig (DCC-Ig4) domains and tagged with HA were constructed for use as negative controls (FIG. 6A, 5F right). Expression secretion of the constructs was confirmed by overexpressing the constructs in HEK293 cells and performing Western blots on cell lysates and media (FIG. 6B). […] Robo1-Ig5 as used herein was expressed in HEK-293 cells in the absence and presence of heparin (300 ng/ml). Media were collected from these ROBO1-Ig5 overexpressing cells on days two, four and six following plasmid transfection. Dot blot dilution assays of the collected media were performed to evaluate the relative secretion of this soluble ROBO1 ECD (FIG. 6C)."}}, "note": "“Also recorded” adds a separate entry of the source."}
{"molecule": "CC(C)(C(=O)NCC(F)(F)C(F)(F)F)C(=O)N[C@@H]1C(=O)Nc2ccccc2-c2ccccc21", "note": "[GSI]", "values": [{"measurement": "Hes1 expression in AVPs", "setting": "Notch signaling; Robo1+/+ animals", "value": "less expression; also recorded: decreased"}, {"measurement": "Hey1 expression in AVPs", "setting": "Notch signaling; Robo1+/+ animals", "value": "less expression; also recorded: decreased"}, {"measurement": "Elf5 expression in AVPs", "setting": "Notch signaling; Robo1-/- animals", "value": "higher; also recorded: rescued"}, {"measurement": "Hes1 expression in AVPs", "setting": "Notch signaling; Robo1-/- animals", "value": "lower; also recorded: rescued"}, {"measurement": "Hey1 expression in AVPs", "setting": "Notch signaling; Robo1-/- animals", "value": "lower; also recorded: rescued"}, {"measurement": "number of alveolar progenitor cells", "setting": "Notch; Robo1-/- animals", "value": "same number of alveolar progenitor cells as WT animals"}, {"measurement": "number of alveolar progenitor cells", "setting": "Notch; WT animals", "value": "no effect"}, {"measurement": "decreased dome formation in Robo1 knockdown (KD) HC11 cells", "setting": "HC11 cells [1]; Robo1 KD HC11 cells plus GSI", "value": "rescued"}, {"measurement": "higher nuclear HES1 in Robo1 knockdown cells", "setting": "NOTCH4", "value": "not observed; also recorded: rescues the effect"}, {"measurement": "higher nuclear NOTCH4 intracellular domain (N4-ICD) in Robo1 knockdown cells", "setting": "NOTCH4", "value": "not observed; also recorded: rescues the effect"}, {"measurement": "decreased Lalba expression in Robo1 knockdown (siR1) HC11 cells", "setting": "HC11 cells [2]; siR1+GSI", "value": "rescued"}, {"measurement": "decreased WAP expression in Robo1 knockdown (siR1) HC11 cells", "setting": "HC11 cells [2]; siR1+GSI", "value": "rescued"}]}
{"molecule": "heparin", "values": [{"measurement": "secretion of soluble ROBO1-Ig5", "setting": "HEK-293 cells", "value": "trend of greater secretion"}, {"measurement": "secretion of soluble ROBO1-Ig5", "setting": "HEK-293 cells; listed as Heparin", "value": "modestly increases"}]}
{"molecule": "bovine ROBO1-Ig5: bovine ROBO1-Ig5 construct (Bos taurus ROBO1-Ig5, SEQ ID NO: 2) (protein, listed as Bos taurus) MIAEPAHFYLFGLICLCSGSRLRQEDFPPRIVEHPSDLIVSKGEPATLNCKAEGRPTPTIEWYKGGERVETDKDDPRSHRMLLPSGSLFFLRIVHGRKSRPDEGVYVCVARNYLGEAVSHNASLEVAILRDDFRQNPSDVMVAVGEPAVMECQPPRGHPEPTISWKKDGSPLDDKDERITIRGGKLMITYTRKSDAGKYVCVGTNMVGERESEVAELTVLERPSFVKRPSNLAVTVDDSAEFKCEARGDPVPTVRWRKDDGELPKSRYEIRDDHTLKIRKVTAGDMGSYTCVAENMVGKAEASATLTVQVGSEPPHFVVKPRDQVVALGRTVTFQCEATGNPQPAIFWRREGSQNLLFSYQPPQSSSRFSVSQTGDLTITNVQRSDVGYYICQTLNVAGSIITKAYLEVTDVIADRPPPVIRQGPVNQTVAVDGTLVLSCVATGSPVPTILWRKDGVLVSTQDSRIKQLETGVLQIRYAKLGDTGRYTCIASTPSGEATWSAYIEVQEF", "values": [{"measurement": "dome formation in response to a titration of ECD fragments", "setting": "HC11 cells [1]", "value": "more domes; also recorded: increasing dome formation"}]}
{"molecule": "DCC-Ig4: extracellular domain of Deleted in Colorectal Cancer comprising four Ig domains, HA tagged, negative control (protein, listed as Rattus norvegicus, HA tag, extracellular domain of Deleted in Colorectal Cancer comprising four Ig domains, HA tagged, negative control) FTSLHFVSEPSDAVTMRGGNVLLNCSAESDRGVPVIKWKKDGLILALGMDDRKQQLPNGSLLIQNILHSRHHKPDEGLYQCEASLGDSGSIISRTAKVMVAGPLRFLSQTESITAFMGDTVLLKCEVIGDPMPTIHWQKNQQDLNPIPGDSRVVVLPSGALQISRLQPGDSGVYRCSARNPASTRTGNEAEVRILSDPGLHRQLYFLQRPSNVIAIEGKDAVLECCVSGYPPPSFTWLRGEEVIQLRSKKYSLLGGSNLLISNVTDDDSGTYTCVVTYKNENISASAELTVLVPPWFLNHPSNLYAYESMDIEFECAVSGKPVPTVNWMKNGDVVIPSDYFQIVGGSNLRILGVVKSDEGFYQCVAENEAGNAQSSAQLI", "values": [{"measurement": "dome formation in response to a titration of ECD fragments", "setting": "HC11 cells [1]", "value": "not observed"}, {"measurement": "WAP gene expression by RT-qPCR", "setting": "HC11 cells [2]; HC11 cells, ECD fragments added simultaneously with DIP media, DCC-Ig4 0.7 μM", "value": "not increased; also recorded: no change"}]}
